Tests used:
[1] = known effect of ritonavir, FDA approved Kaletra Drug Label May 2012; cited from earlier work
[2] = set-up: species or system HCV patients (human); details: in vivo
From the text: Ritonavir-boosted HIV protease inhibitors are associated with increases in serum lipids. See FIG. 1, where LPV refers to lopinavir, “/r” refers to co-administration with ritonavir (e.g., LPV/r refers to lopinavir co-administered with ritonavir). DRV refers to darunavir, ATV refers to atazanavir, FPV refers to fosamprenavir, FTC refers to emtricitabine, TDF refers to tenofovir disoproxil fumarate, […], 3TC refers to lamivudine, TC refers to total cholesterol, and TG refers to total triglycerides. These increase in cholesterol and triglycerides may be related to inhibition of the proteasome, which is involved in degradation of proteins related to lipid metabolism. However, the impact of ritonavir-boosted HCV treatments on lipid levels has not been studied. The purpose of this Example was to examine the lipid levels of HCV patients during 12 weeks of treatment with ritonavir-containing, interferon-free regimens. […]
Fasting total cholesterol (TC) and triglycerides (TG) were measured at each study visit. The number of subjects with baseline low or normal TC or TG who shifted to high TC or TG were calculated using NCEP cut-offs. Lipid fractions were not measured.

CC(C)c1nc(CN(C)C(=O)N[C@H](C(=O)N[C@@H](Cc2ccccc2)C[C@H](O)[C@H](Cc2ccccc2)NC(=O)OCc2cncs2)C(C)C)cs1 [ritonavir]
cholesterol and triglyceride levels [1]: elevated cholesterol and triglyceride levels | total cholesterol and triglyceride levels [2]: not elevated

Reference: patent publication US20140024613A1, “Methods for Treating HCV” (AbbVie Inc., priority 2012, published 2014)
